{"source": "patent US9873680B2", "about": "(Gilead Sciences, Inc., priority 2014, dated 2018)", "key": {"HIV-IIIb": {"system": "HIV-IIIb", "test": "Test A: Antiviral Assay in MT4 Cells", "assay_type": "cell-based, HIV-1", "conditions": "read-out: % inhibition at 0.2 μM (percent inhibition of virus-induced cell killing)", "outline": "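MT-4 cells were preinfected with HIV-IIIb […]. Cell viability, as protection from viral cytopathic effect, was read by CellTiter-Glo chemiluminescence.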"}, "[1]": {"test": "Test B: Cytotoxicity Assay", "assay_type": "cell-based", "conditions": "human, uninfected MT-4 cells, CellTiter-Glo", "experimental": "Test B: Cytotoxicity Assay Compound cytotoxicity and the corresponding CC50 values was determined using the same protocol as described in the antiviral assay (Test A) except that uninfected cells were used."}, "[2]": {"conditions": "Human immunodeficiency virus 1, MT4, 120 h, 0.2 μM drug concentration, MT-4 cells infected with HIV-IIIb, 5 days, values normalized to 100%, average over time"}}, "note": "Like-named read-outs stand apart in the source and are kept apart here.", "data": [{"smiles": "Cn1nc(NS(C)(=O)=O)c2c(Cl)ccc(-c3ccc(C#CC4(CO)CCCC4)nc3[C@H](Cc3cc(F)cc(F)c3)NC(=O)Cn3nc(C(F)(F)F)c4c3C(F)(F)[C@@H]3C[C@H]43)c21", "note": "[Compound 45B, N—((S)-1-(3-(4-chloro-1-methyl-3-(methylsulfonamido)-1H-indazol-7-yl)-6-((1-(hydroxymethyl)cyclopentyl)ethynyl)pyridin-2-yl)-2-(3,5-difluorophenyl)ethyl)-2-((3bS,4aR)-5,5-difluoro-3-(trifluoromethyl)-3b,4,4a,5-tetrahydro-1H-cyclopropa[3,4]cyclopenta[1,2-c]pyrazol-1-yl)acetamide]", "values": [{"measurement": "inhibition at 0.2 µM", "setting": "HIV-IIIb; [2]", "value": 93, "unit": "%"}, {"measurement": "CC50 at 5 days", "setting": "[1]", "value": 7.35, "unit": "µM"}]}, {"smiles": "Cn1nc(NS(C)(=O)=O)c2c(Cl)ccc(-c3ccc(C#CC4(O)CCOC4)nc3[C@H](Cc3cc(F)cc(F)c3)NC(=O)Cn3nc(C(F)(F)F)c4c3C(F)(F)[C@@H]3C[C@H]43)c21", "note": "(stereo partly drawn) [Compound 46, N-((1S)-1-(3-(4-chloro-1-methyl-3-(methylsulfonamido)-1H-indazol-7-yl)-6-((3-hydroxytetrahydrofuran-3-yl)ethynyl)pyridin-2-yl)-2-(3,5-difluorophenyl)ethyl)-2-((3bS,4aR)-5,5-difluoro-3-(trifluoromethyl)-3b,4,4a,5-tetrahydro-1H-cyclopropa[3,4]cyclopenta[1,2-c]pyrazol-1-yl)acetamide]", "values": [{"measurement": "inhibition at 0.2 µM", "setting": "HIV-IIIb; [2]", "value": 96, "unit": "%"}, {"measurement": "CC50 at 5 days", "setting": "[1]", "value": 17.6, "unit": "µM"}]}, {"smiles": "CN1CCN(CC#Cc2ccc(-c3ccc(Cl)c4c(NS(C)(=O)=O)nn(C)c34)c([C@H](Cc3cc(F)cc(F)c3)NC(=O)Cn3nc(C(F)(F)F)c4c3C(F)(F)[C@@H]3C[C@H]43)n2)CC1", "note": "[Compound 47, N—((S)-1-(3-(4-chloro-1-methyl-3-(methylsulfonamido)-1H-indazol-7-yl)-6-(3-(4-methylpiperazin-1-yl)prop-1-yn-1-yl)pyridin-2-yl)-2-(3,5-difluorophenyl)ethyl)-2-((3bS,4aR)-5,5-difluoro-3-(trifluoromethyl)-3b,4,4a,5-tetrahydro-1H-cyclopropa[3,4]cyclopenta[1,2-c]pyrazol-1-yl)acetamide]", "values": [{"measurement": "inhibition at 0.2 µM", "setting": "HIV-IIIb; [2]", "value": 94, "unit": "%"}, {"measurement": "CC50 at 5 days", "setting": "[1]", "value": 7.97, "unit": "µM"}]}, {"smiles": "CC1CC(O)(C#Cc2ccc(-c3ccc(Cl)c4c(NS(C)(=O)=O)nn(C)c34)c([C@H](Cc3cc(F)cc(F)c3)NC(=O)Cn3nc(C(F)(F)F)c4c3C(F)(F)[C@@H]3C[C@H]43)n2)CC(C)O1", "note": "(stereo partly drawn) [Compound 48C, N-((1S)-1-(3-(4-chloro-1-methyl-3-(methylsulfonamido)-1H-indazol-7-yl)-6-((4-hydroxy-2,6-dimethyltetrahydro-2H-pyran-4-yl)ethynyl)pyridin-2-yl)-2-(3,5-difluorophenyl)ethyl)-2-((3bS,4aR)-5,5-difluoro-3-(trifluoromethyl)-3b,4,4a,5-tetrahydro-1H-cyclopropa[3,4]cyclopenta[1,2-c]pyrazol-1-yl)acetamide]", "values": [{"measurement": "inhibition at 0.2 µM", "setting": "HIV-IIIb; [2]", "value": 92, "unit": "%"}, {"measurement": "CC50 at 5 days", "setting": "[1]", "value": 7.27, "unit": "µM"}]}, {"smiles": "Cn1nc(NS(C)(=O)=O)c2c(Cl)ccc(-c3ccc(C#CC4COCCN4)nc3[C@H](Cc3cc(F)cc(F)c3)NC(=O)Cn3nc(C(F)(F)F)c4c3C(F)(F)[C@@H]3C[C@H]43)c21", "note": "(stereo partly drawn) [Compound 49, N-((1S)-1-(3-(4-chloro-1-methyl-3-(methylsulfonamido)-1H-indazol-7-yl)-6-(morpholin-3-ylethynyl)pyridin-2-yl)-2-(3,5-difluorophenyl)ethyl)-2-((3bS,4aR)-5,5-difluoro-3-(trifluoromethyl)-3b,4,4a,5-tetrahydro-1 I-cyclopropa[3,4]cyclopenta[1,2-c]pyrazol-1-yl)acetamide]", "values": [{"measurement": "inhibition at 0.2 µM", "setting": "HIV-IIIb; [2]", "value": 92, "unit": "%"}, {"measurement": "CC50 at 5 days", "setting": "[1]", "value": 20.6, "unit": "µM"}]}, {"smiles": "Cn1nc(NS(C)(=O)=O)c2c(Cl)ccc(-c3ccc(C#CC4(O)CO[C@H]5OCC[C@H]54)nc3[C@H](Cc3cc(F)cc(F)c3)NC(=O)Cn3nc(C(F)(F)F)c4c3C(F)(F)[C@@H]3C[C@H]43)c21", "note": "(stereo partly drawn) [Compound 50B, N-((1S)-1-(3-(4-chloro-1-methyl-3-(methylsulfonamido)-1H-indazol-7-yl)-6-(((3aS,6aR)-3-hydroxyhexahydrofuro[2,3-b]furan-3-yl)ethynyl)pyridin-2-yl)-2-(3,5-difluorophenyl)ethyl)-2-((3bS,4aR)-5,5-difluoro-3-(trifluoromethyl)-3b,4,4a,5-tetrahydro-1H-cyclopropa[3,4]cyclopenta[1,2-c]pyrazol-1-yl)acetamide]", "values": [{"measurement": "inhibition at 0.2 µM", "setting": "HIV-IIIb; [2]", "value": 92, "unit": "%"}, {"measurement": "CC50 at 5 days", "setting": "[1]", "value": 10, "unit": "µM"}]}, {"smiles": "Cn1nc(NS(C)(=O)=O)c2c(Cl)ccc(-c3ccc(C#CC4(O)CC5(COC5)C4)nc3[C@H](Cc3cc(F)cc(F)c3)NC(=O)Cn3nc(C(F)(F)F)c4c3C(F)(F)[C@@H]3C[C@H]43)c21", "note": "[Compound 51B, N—((S)-1-(3-(4-chloro-1-methyl-3-(methylsulfonamido)-1H-indazol-7-yl)-6-((6-hydroxy-2-oxaspiro[3.3]heptan-6-yl)ethynyl)pyridin-2-yl)-2-(3,5-difluorophenyl)ethyl)-2-((3bS,4aR)-5,5-difluoro-3-(trifluoromethyl)-3b,4,4a,5-tetrahydro-1H-cyclopropa[3,4]cyclopenta[1,2-c]pyrazol-1-yl)acetamide]", "values": [{"measurement": "inhibition at 0.2 µM", "setting": "HIV-IIIb; [2]", "value": 89, "unit": "%"}, {"measurement": "CC50 at 5 days", "setting": "[1]", "value": 19.8, "unit": "µM"}]}, {"smiles": "Cn1nc(NS(C)(=O)=O)c2c(Cl)ccc(-c3ccc(C#CC4(O)CO[C@H]5OCC[C@H]54)nc3[C@H](Cc3cc(F)cc(F)c3)NC(=O)Cn3nc(C(F)F)c4c3C(F)(F)[C@@H]3C[C@H]43)c21", "note": "(stereo partly drawn) [Compound 52, N-((1S)-1-(3-(4-chloro-1-methyl-3-(methylsulfonamido)-1H-indazol-7-yl)-6-(((3aS,6aR)-3-hydroxyhexahydrofuro[2,3-b]furan-3-yl)ethynyl)pyridin-2-yl)-2-(3,5-difluorophenyl)ethyl)-2-((3bS,4aR)-3-(difluoromethyl)-5,5-difluoro-3b,4,4a,5-tetrahydro-1H-cyclopropa[3,4]cyclopenta[1,2-c]pyrazol-1-yl)acetamide]", "values": [{"measurement": "inhibition at 0.2 µM", "setting": "HIV-IIIb; [2]", "value": 96, "unit": "%"}, {"measurement": "CC50 at 5 days", "setting": "[1]", "value": 17.1, "unit": "µM"}]}, {"smiles": "Cn1nc(NS(C)(=O)=O)c2c(Cl)ccc(-c3ccc(C#CC4CNCCO4)nc3[C@H](Cc3cc(F)cc(F)c3)NC(=O)Cn3nc(C(F)(F)F)c4c3C(F)(F)[C@@H]3C[C@H]43)c21", "note": "(stereo partly drawn) [Compound 53B, N-((1S)-1-(3-(4-chloro-1-methyl-3-(methylsulfonamido)-1H-indazol-7-yl)-6-(morpholin-2-ylethynyl)pyridin-2-yl)-2-(3,5-difluorophenyl)ethyl)-2-((3bS,4aR)-5,5-difluoro-3-(trifluoromethyl)-3b,4,4a,5-tetrahydro-1H-cyclopropa[3,4]cyclopenta[1,2-c]pyrazol-1-yl)acetamide]", "values": [{"measurement": "inhibition at 0.2 µM", "setting": "HIV-IIIb; [2]", "value": 100, "unit": "%"}, {"measurement": "CC50 at 5 days", "setting": "[1]", "value": 6.81, "unit": "µM"}]}, {"smiles": "Cn1nc(NS(C)(=O)=O)c2c(Cl)ccc(-c3ccc(C#CC(C)(O)c4ccco4)nc3[C@H](Cc3cc(F)cc(F)c3)NC(=O)Cn3nc(C(F)(F)F)c4c3C(F)(F)[C@@H]3C[C@H]43)c21", "note": "(stereo partly drawn) [Compound 54, N-((1S)-1-(3-(4-chloro-1-methyl-3-(methylsulfonamido)-1H-indazol-7-yl)-6-(3-(furan-2-yl)-3-hydroxybut-1-yn-1-yl)pyridin-2-yl)-2-(3,5-difluorophenyl)ethyl)-2-((3bS,4aR)-5,5-difluoro-3-(trifluoromethyl)-3b,4,4a,5-tetrahydro-1H-cyclopropa[3,4]cyclopenta[1,2-c]pyrazol-1-yl)acetamide]", "values": [{"measurement": "inhibition at 0.2 µM", "setting": "HIV-IIIb; [2]", "value": 100, "unit": "%"}, {"measurement": "CC50 at 5 days", "setting": "[1]", "value": 11.6, "unit": "µM"}]}, {"smiles": "CC(=O)N1CCCC1C#Cc1ccc(-c2ccc(Cl)c3c(NS(C)(=O)=O)nn(C)c23)c([C@H](Cc2cc(F)cc(F)c2)NC(=O)Cn2nc(C(F)(F)F)c3c2C(F)(F)[C@@H]2C[C@H]32)n1", "note": "(stereo partly drawn) [Compound 55, N-((1S)-1-(6-((1-acetylpyrrolidin-2-yl)ethynyl)-3-(4-chloro-1-methyl-3-(methylsulfonamido)-1H-indazol-7-yl)pyridin-2-yl)-2-(3,5-difluorophenyl)ethyl)-2-((3bS,4aR)-5,5-difluoro-3-(trifluoromethyl)-3b,4,4a,5-tetrahydro-1H-cyclopropa[3,4]cyclopenta[1,2-c]pyrazol-1-yl)acetamide]", "values": [{"measurement": "inhibition at 0.2 µM", "setting": "HIV-IIIb; [2]", "value": 88, "unit": "%"}, {"measurement": "CC50 at 5 days", "setting": "[1]", "value": 9.94, "unit": "µM"}]}, {"smiles": "Cn1cnc(C(O)C#Cc2ccc(-c3ccc(Cl)c4c(NS(C)(=O)=O)nn(C)c34)c([C@H](Cc3cc(F)cc(F)c3)NC(=O)Cn3nc(C(F)(F)F)c4c3C(F)(F)[C@@H]3C[C@H]43)n2)c1", "note": "(stereo partly drawn) [Compound 56B, N-((1S)-1-(3-(4-chloro-1-methyl-3-(methylsulfonamido)-1H-indazol-7-yl)-6-(3-hydroxy-3-(1-methyl-1H-imidazol-4-yl)prop-1-yn-1-yl)pyridin-2-yl)-2-(3,5-difluorophenyl)ethyl)-2-((3bS,4aR)-5,5-difluoro-3-(trifluoromethyl)-3b,4,4a,5-tetrahydro-1H-cyclopropa[3,4]cyclopenta[1,2-c]pyrazol-1-yl)acetamide]", "values": [{"measurement": "inhibition at 0.2 µM", "setting": "HIV-IIIb; [2]", "value": 84, "unit": "%"}, {"measurement": "CC50 at 5 days", "setting": "[1]", "value": 9.02, "unit": "µM"}]}, {"smiles": "Cn1nc(O)c2c(Cl)ccc(-c3ccc(C#CC4(O)CCOCC4)nc3[C@H](Cc3cc(F)cc(F)c3)NC(=O)Cn3nc(C(F)(F)F)c4c3CCCC4)c21", "note": "[Compound 57, (S)—N-(1-(3-(4-chloro-3-hydroxy-1-methyl-1H-indazol-7-yl)-6-((4-hydroxytetrahydro-2H-pyran-4-yl)ethynyl)pyridin-2-yl)-2-(3,5-difluorophenyl)ethyl)-2-(3-(trifluoromethyl)-4,5,6,7-tetrahydro-1H-indazol-1-yl)acetamide]", "values": [{"measurement": "inhibition at 0.2 µM", "setting": "HIV-IIIb; Human immunodeficiency virus 1, IIIB, MT4, 120 h", "value": 100, "unit": "%"}, {"measurement": "CC50 at 5 days", "setting": "[1]", "value": 21, "unit": "µM"}]}, {"smiles": "Cn1nc(NS(C)(=O)=O)c2c(Cl)ccc(-c3ccc(C#CC4(O)CCNC4)nc3[C@H](Cc3cc(F)cc(F)c3)NC(=O)Cn3nc(C(F)(F)F)c4c3C(F)(F)[C@@H]3C[C@H]43)c21", "note": "(stereo partly drawn) [Compound 58, N-((1S)-1-(3-(4-chloro-1-methyl-3-(methylsulfonamido)-1H-indazol-7-yl)-6-((3-hydroxypyrrolidin-3-yl)ethynyl)pyridin-2-yl)-2-(3,5-difluorophenyl)ethyl)-2-((3bS,4aR)-5,5-difluoro-3-(trifluoromethyl)-3b,4,4a,5-tetrahydro-1H-cyclopropa[3,4]cyclopenta[1,2-c]pyrazol-1-yl)acetamide]", "values": [{"measurement": "inhibition at 0.2 µM", "setting": "HIV-IIIb; [2]", "value": 91, "unit": "%"}, {"measurement": "CC50 at 5 days", "setting": "[1]", "value": 5.19, "unit": "µM"}]}]}
